# Legend:
# Set-up in all cases: species or system AML cell lines (8); Primary HTS, single concentration about 10 uM, Cell Titer Glo viability; log10 luminescence, per cent inhibition relative to cycloheximide control
# Conditions in all cases: 72 h, relative to cycloheximide control, log10 luminescence; inhibitor
# [1] = system: CHRF288-11
# [2] = system: CMK
# [3] = system: CMS
# [4] = system: M07e
# [5] = system: ML-2
# [6] = system: MOLM-13
# [7] = system: MV4-11
# [8] = system: U937
Compound,CHRF288-11 %inh [1],CMK %inh [2],CMS %inh [3],M07e %inh [4],ML-2 %inh [5],MOLM-13 %inh [6],MV4-11 %inh [7],U937 %inh [8]
O=C1NC(=NCc2c(Cl)cccc2Cl)S/C1=C\c1ccc2ncccc2c1 [SJ000581049-1],-0.3937%,-7.089%,2.314%,1.964%,1.063%,5.37%,-1.821%,5.41%
COc1cccc(C2=C(c3cn(C)c4ccccc34)C(=O)NC2=O)c1 [SJ000581051-1],11.8%,-3.208%,3.466%,5.285%,-0.8075%,1.318%,1.602%,-2.854%
Cc1nc2sc3c(N)ncnc3c2c(C)c1C [SJ000581052-1],5.518%,-9.059%,0.007081%,0.5709%,0.8474%,0.3678%,-2.527%,1.552%
Cn1cc(C2=C(n3ccc4ccccc43)C(=O)NC2=O)c2ccccc21 [SJ000581055-1],24.92%,-4.048%,4.23%,-0.4303%,-0.8882%,-2.803%,-2.255%,-2.193%
CC(=O)N[C@@H](Cc1ccc(OP(=O)(O)O)cc1)C(=O)N[C@H]1CCC(=O)N2CCC[C@@H](C(=O)NCc3ccc(Cl)cc3)N2C1=O [SJ000581056-1],0.8967%,-8.834%,0.4986%,-0.4557%,-0.961%,-1.276%,-2.949%,-1.499%
C[C@H](CS(C)(=O)=O)Nc1ncc2cc(Oc3ccc(F)cc3F)c(=O)n(C)c2n1 [SJ000581059-1],14.97%,-5.286%,4.304%,5.493%,1.6%,-1.998%,-0.5733%,2.611%
C[C@@H](CS(C)(=O)=O)Nc1ncc2cc(Oc3ccc(F)cc3F)c(=O)n(C)c2n1 [SJ000581059-2],4.121%,2.224%,1.072%,9.03%,-1.135%,1.811%,3.472%,2.114%
Fc1ccc(-c2c(-c3ccncc3)n(CCN3CCOCC3)c3cccnc23)cc1 [SJ000581060-1],10.61%,-1.956%,2.843%,4.186%,0.7421%,-2.603%,-0.5528%,3.3%
Cn1c(=O)c(Oc2ccccc2F)cc2cnc(NC3CCOCC3)nc21 [SJ000581061-1],11.16%,-2.528%,1.876%,6.564%,3.823%,-1.076%,0.7758%,1.19%
Cn1c(=O)c(Oc2ccc(F)cc2F)cc2cnc(NC3CCS(=O)(=O)CC3)nc21 [SJ000581062-1],0.18%,-3.198%,-1.245%,3.904%,1.685%,-0.445%,-0.9313%,4.309%
O=C1NC(=NCC(CO)c2ccccc2)S/C1=C\c1ccc2ncccc2c1 (stereo not shown) [SJ000581063-1],1.779%,-3.487%,4.364%,4.562%,3.168%,2.415%,53.98%,16.39%
Cn1cc(C2=C(c3cn(C)c4ccc(OCc5ccccc5)cc34)C(=O)NC2=O)c2ccccc21 [SJ000581064-1],7.008%,-3.355%,2.588%,0.1859%,-0.03114%,-0.8092%,0.7902%,-0.03201%
O=C1C(c2c[nH]c3ccccc23)=C(c2c[nH]c3ccccc23)C(=O)N1O [SJ000581067-1],18.95%,-5.714%,-0.1746%,0.7451%,-0.2137%,0.2373%,1.166%,-1.683%
Cn1cc(C2=C(c3cn(C)c4cc(C(N)=O)ccc34)C(=O)NC2=O)c2ccccc21 [SJ000581068-1],59.82%,87.67%,51.9%,58.86%,54.4%,63.24%,76.64%,75.21%
Cn1cc(C2=C(c3c[nH]c4ccccc34)C(=O)NC2=O)c2ccccc21 [SJ000581069-1],37%,44.1%,13.88%,40.86%,39.66%,79.5%,15.94%,53.14%
COc1cccc2c1c(C1=C(c3cn(C)c4ccccc34)C(=O)NC1=O)cn2C [SJ000581070-1],8.87%,10.2%,-1.314%,5.504%,-0.1682%,2.978%,0.2803%,-0.4175%
CN=C1NC(=O)/C(=C/c2ccc3ncccc3c2)S1 [SJ000581072-1],174.6%,44.3%,9.143%,18.48%,4.634%,28.17%,9.718%,7.703%
O=C1NC(=NCc2ccccc2)S/C1=C\c1ccc2ncccc2c1 [SJ000581073-1],5.173%,48.96%,5.2%,12.28%,2.983%,18.77%,27.42%,3.079%
CS(=O)(=O)CCCn1c(=O)c(Oc2ccc(F)cc2F)cc2cnc(NC3CCOCC3)nc21 [SJ000581074-1],5.377%,-0.8153%,-2.642%,4.622%,1.736%,-2.241%,-0.6859%,1.649%
O=C1NC(=O)C(c2c[nH]c3ccccc23)=C1c1ccccc1 [SJ000581075-1],16.2%,-2.624%,-0.679%,3.019%,1.922%,-2.51%,1.744%,2.672%

# — PMC6522510 (Nature Communications, 2019)
